Laboratory results from patent US20080096894A1, “Anti-Bacterial Compounds” (ASTON UNIVERSITY, priority 2005, published 2008).
Read-outs that look alike come from different tables or passages of the source.

Experiments:
E. faecalis = assay: MIC, agar dilution, multipoint inoculator; format: cell-based; conditions: Enterococcus faecalis, upper value of MIC reading, read-out: MIC
In short: (§1)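 Compounds were serially incorporated into Mueller Hinton agar, then each strain was spotted by multipoint inoculator at 10^4 colony forming units per spot. MIC was determined from the dilution series.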

S. haemolyticus = assay: MIC, agar dilution, multipoint inoculator; format: cell-based; conditions: Staphylococcus haemolyticus, 18 h; S. haemolyticus Isolate 1; upper value of MIC reading; read-out: MIC
In short: as §1

Measured: MIC

CC(C)(C)c1cc(/C=N/N=C(\N)c2ccncc2)c(O)c(C(C)(C)C)c1 [Compound 4PYcq]
4 µg/mL: E. faecalis; 18 h, E. faecalis EBH1 | E. faecalis; 18 h, E. faecalis Isolate 1 | E. faecalis; 18 h, E. faecalis Isolate 2 | E. faecalis; 18 h, E. faecalis Isolate 4 | E. faecalis; 18 h, E. faecalis Isolate 5 | E. faecalis; NCTC5957, 18 h, E. faecalis NCTC 5957 | S. haemolyticus
